Test results taken from US20060069132A1, “Azolecarboxamide herbicides” (priority 2004, published 2006).

Tests used:
velvetleaf [1] = test: Test B pre-/postemergence herbicide test; type: in vivo, Abutilon theophrasti
Summary of the method: (§1)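 Herbicidal effect was judged by eye on a 0–100 scale after plants stood 13 to 15 days in the greenhouse following pre- or postemergence treatment with surfactant-containing formulations.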

ducksalad = test: Test B flooded paddy test; type: in vivo, Heteranthera limosa; settings: 1000 g ai/ha, visual rating, scale 0 to 100 (0 no effect, 100 complete control), 13 to 15 days
Summary of the method: (§2)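 Plants grow to 1- to 4-leaf stage (2–18 cm) for postemergence spraying, or to 2-leaf stage for the paddy test. Formulated compound is applied. Greenhouse holding lasts 13–15 days. Response is scored visually relative to controls, 0 no effect to 100 complete control; a dash means no result.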

lambsquarters = test: Test B pre-/postemergence herbicide test; type: in vivo, Chenopodium album
Summary of the method: as §1

blackgrass = test: Test B postemergence herbicide test; type: in vivo, Alopecurus myosuroides; settings: scale 0 (no effect) to 100 (complete control)
Summary of the method: as §2

barnyardgrass [2] = test: Test A pre-/postemergence herbicide test; type: in vivo, Echinochloa crus-galli
Summary of the method: (§3)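 Visual injury scores on a 0–100 scale (100 = complete control) taken about ten days post-treatment in greenhouse against untreated controls; dash means no result. Treatments: preemergence soil spray and postemergence spray to runoff on one- to two-leaf plants 2 to 10 cm tall, surfactant-containing formulation.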

morningglory [3] = test: Test B pre-/postemergence herbicide test; type: in vivo, Ipomoea coccinea
Summary of the method: (§4)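 Species tested were Echinochloa crus-galli, Ipomoea coccinea, Xanthium strumarium and Oryza sativa, treated both before emergence and at the 1- to 4-leaf stage; rice and barnyardgrass were also tested under flooding at 2 leaves. Greenhouse incubation lasted 13–15 days before visual 0–100 scoring.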

giant foxtail [4] = test: Test A pre-/postemergence herbicide test; type: in vivo, Setaria faberi
Summary of the method: as §3

pigweed = test: Test B pre-/postemergence herbicide test; type: in vivo, Amaranthus retroflexus
Summary of the method: as §1

velvetleaf [5] = test: Test A pre-/postemergence herbicide test; type: in vivo, Abutilon theophrasti
Summary of the method: as §3

wild oat = test: Test B postemergence herbicide test; type: in vivo, Avena fatua; settings: scale 0 (no effect) to 100 (complete control)
Summary of the method: (§5)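 Visual ratings, 0 (no effect) to 100 (complete control), made versus controls after 13–15 d greenhouse. Paddy plants treated at 2-leaf stage; postemergence plants at 1- to 4-leaf stage, 2–18 cm tall.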

barnyardgrass [6] = test: Test B flooded paddy test; type: in vivo, Echinochloa crus-galli; settings: 1000 g ai/ha, visual rating, scale 0 to 100 (0 no effect, 100 complete control), 13 to 15 days
Summary of the method: as §2

wheat = test: Test B postemergence herbicide test; type: in vivo, Triticum aestivum; set-up: key to Wheat plant response rating: 0 = no effect, 100 = complete control; settings: scale 0 (no effect) to 100 (complete control)
Summary of the method: as §5

large crabgrass [7] = test: Test A pre-/postemergence herbicide test; type: in vivo, Digitaria sanguinalis
Summary of the method: as §3

large crabgrass [8] = test: Test B pre-/postemergence herbicide test; type: in vivo, Digitaria sanguinalis
Summary of the method: as §1

corn = test: Test B pre-/postemergence herbicide test; type: in vivo, Zea mays
Summary of the method: as §1

cocklebur = test: Test B pre-/postemergence herbicide test; type: in vivo, Xanthium strumarium
Summary of the method: as §4

redroot pigweed = test: Test A pre-/postemergence herbicide test; type: in vivo, Amaranthus retroflexus
Summary of the method: as §3

rice [9] = test: Test B flooded paddy test; type: in vivo, Oryza sativa; settings: 1000 g ai/ha, visual rating, scale 0 to 100 (0 no effect, 100 complete control), 13 to 15 days
Summary of the method: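 Treated at 2-leaf (paddy) or 1–4-leaf, 2–18 cm (postemergence); greenhouse 13–15 d; visual score vs control, 0 none to 100 complete control; dash = not tested.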

barnyardgrass [10] = test: Test B pre-/postemergence herbicide test; type: in vivo, Echinochloa crus-galli
Summary of the method: as §4

[11] = tested on: small flower umbrella sedge; test: Test B flooded paddy test; type: in vivo, Cyperus difformis; settings: 1000 g ai/ha, visual rating, scale 0 to 100 (0 no effect, 100 complete control), 13 to 15 days
Summary of the method: as §2

rice [12] = test: Test B pre-/postemergence herbicide test; type: in vivo, Oryza sativa; settings: preemergence
Summary of the method: as §1

morningglory [13] = test: Test A pre-/postemergence herbicide test; type: in vivo, Ipomoea spp.
Summary of the method: as §3

Surinam grass = test: Test B pre-/postemergence herbicide test; type: in vivo, Urochloa decumbens
Summary of the method: as §1

giant foxtail [14] = test: Test B pre-/postemergence herbicide test; type: in vivo, Setaria faberi
Summary of the method: as §1

[15] = 500 g ai/ha, visual rating 0-100, 0 no effect, 100 complete control, preemergence
[16] = Postemergence, 500 g ai/ha, visual rating after 13 to 15 days, scale 0 (no effect) to 100 (complete control)
[17] = postemergence, 125 g ai/ha, visual rating, scale 0 (no effect) to 100 (complete control)
[18] = preemergence, 125 g ai/ha, 0 to 100 scale, 0 is no effect, 100 is complete control
[19] = Postemergence, 500 g ai/ha, visual rating after 13 to 15 days
[20] = postemergence, 125 g ai/ha, visual rating
[21] = Postemergence, 500 g ai/ha, 0 to 100 scale, 0 no effect, 100 complete control
[22] = Postemergence, 2000 g ai/ha, 0 to 100 scale, 0 no effect, 100 complete control
[23] = Preemergence, 500 g ai/ha, visual rating, 0 to 100 scale (0 no effect, 100 complete control)
[24] = Preemergence, 2000 g ai/ha, visual rating, 0 to 100 scale (0 no effect, 100 complete control)

CCOC(=O)c1cccc(NC(=O)c2cc(C(C)(C)C)nn2CC)c1OC [Compound 97]
0: Plant response rating, Velvetleaf (velvetleaf [1]; [15]) | Velvetleaf plant response rating (velvetleaf [1]; [17]) | Plant response rating, Velvetleaf (velvetleaf [1]; [18]) | Plant response rating, Lambsquarters (lambsquarters; [15]) | Plant response rating, Lambsquarters (lambsquarters; [18]) | Plant response rating, Blackgrass (blackgrass; [19]) | Blackgrass plant response rating (blackgrass; [20]) | Barnyardgrass plant response rating (barnyardgrass [2]; [23]) | Barnyardgrass plant response rating (barnyardgrass [2]; [24]) | Plant response rating, Morningglory (morningglory [3]; [15]) | Plant response rating, Morningglory (morningglory [3]; [16]) | Morningglory plant response rating (morningglory [3]; [17]) | Plant response rating, Morningglory (morningglory [3]; [18]) | Foxtail, Giant plant response rating (giant foxtail [4]; [23]) | Foxtail, Giant plant response rating (giant foxtail [4]; [24]) | Plant response rating, Pigweed (pigweed; [15]) | Plant response rating, Pigweed (pigweed; [16]) | Pigweed plant response rating (pigweed; [17]) | Plant response rating, Pigweed (pigweed; [18]) | Velvetleaf plant response rating (velvetleaf [5]; [23]) | Velvetleaf plant response rating (velvetleaf [5]; [24]) | Plant response rating, Oat, Wild (wild oat; [19]) | Oat, Wild plant response rating (wild oat; [20]) | Barnyardgrass plant response rating (barnyardgrass [6]) | Plant response rating, Wheat (wheat; [19]) | Wheat plant response rating (wheat; [20]) | Crabgrass, Large plant response rating (large crabgrass [7]; [23]) | Crabgrass, Large plant response rating (large crabgrass [7]; [24]) | Plant response rating, Crabgrass, Large (large crabgrass [8]; [15]) | Plant response rating, Crabgrass, Large (large crabgrass [8]; [16]) | Crabgrass, Large plant response rating (large crabgrass [8]; [17]) | Plant response rating, Crabgrass, Large (large crabgrass [8]; [18]) | Plant response rating, Corn (corn; [15]) | Plant response rating, Corn (corn; [16]) | Corn plant response rating (corn; [17]) | Plant response rating, Corn (corn; [18]) | Plant response rating, Cocklebur (cocklebur; [15]) | Cocklebur plant response rating (cocklebur; [17]) | Plant response rating, Cocklebur (cocklebur; [18]) | Pigweed plant response rating (redroot pigweed; [21]) | Pigweed plant response rating (redroot pigweed; [23]) | Pigweed plant response rating (redroot pigweed; [24]) | Rice plant response rating (rice [9]) | Plant response rating, Barnyardgrass (barnyardgrass [10]; [15]) | Plant response rating, Barnyardgrass (barnyardgrass [10]; [16]) | Barnyardgrass plant response rating (barnyardgrass [10]; [17]) | Plant response rating, Barnyardgrass (barnyardgrass [10]; [18]) | Plant response rating, Rice (rice [12]; 500 g ai/ha, visual rating 0-100, 0 no effect, 100 complete control) | Plant response rating, Rice (rice [12]; 125 g ai/ha, 0 to 100 scale, 0 is no effect, 100 is complete control) | Morningglory plant response rating (morningglory [13]; [21]) | Plant response rating, Morningglory (morningglory [13]; [22]) | Morningglory plant response rating (morningglory [13]; [23]) | Morningglory plant response rating (morningglory [13]; [24]) | Plant response rating, Surinam Grass (Surinam grass; [15]) | Plant response rating, Surinam Grass (Surinam grass; [16]) | Surinam Grass plant response rating (Surinam grass; [17]) | Plant response rating, Surinam Grass (Surinam grass; [18]) | Plant response rating, Foxtail, Giant (giant foxtail [14]; [15]) | Plant response rating, Foxtail, Giant (giant foxtail [14]; [16]) | Foxtail, Giant plant response rating (giant foxtail [14]; [17]) | Plant response rating, Foxtail, Giant (giant foxtail [14]; [18])
25: Plant response rating, Pigweed (redroot pigweed; [22])
60: Plant response rating, Velvetleaf (velvetleaf [1]; [16])
70: Plant response rating, Lambsquarters (lambsquarters; [16]) | Plant response rating, Cocklebur (cocklebur; [16]) | Sedge, Umbrella plant response rating [11]
5: Barnyardgrass plant response rating (barnyardgrass [2]; [21]) | Foxtail, Giant plant response rating (giant foxtail [4]; [21]) | Velvetleaf plant response rating (velvetleaf [5]; [21])
50: Ducksalad plant response rating (ducksalad) | Lambsquarters plant response rating (lambsquarters; [17])
10: Plant response rating, Barnyardgrass (barnyardgrass [2]; [22]) | Plant response rating, Foxtail, Giant (giant foxtail [4]; [22]) | Plant response rating, Velvetleaf (velvetleaf [5]; [22]) | Crabgrass, Large plant response rating (large crabgrass [7]; [21]) | Plant response rating, Crabgrass, Large (large crabgrass [7]; [22])
